Assay results reported in US8741806B2, “Herbicides” (Syngenta Limited, priority 2009, dated 2014).

Key:
Assay type in all cases: in vivo
Avena fatua (AVEFA) [1] = assay: Example B post-emergence herbicidal activity, glasshouse pot test; settings: 312 h, rate 250 g/ha, evaluated after 13 days, scale 0-100, read-out: Post-emergence activity AVEFA (100=total damage to plant; 0=no damage to plant)
Experimental: (§1) Seeds of a variety of test species were sown in standard soil in pots. After cultivation for one day (pre-emergence) or after 8 days cultivation (post-emergence) under controlled conditions in a glasshouse (at 24/16° C., day/night; 14 hours light; 65% humidity), the plants were sprayed with an aqueous spray solution derived from the formulation of the technical active ingredient of formula I in acetone/water (50:50) solution containing 0.5% Tween 20 (polyoxyethelyene sorbitan monolaurate, CAS RN 9005-64-5). The test plants were then grown in a glasshouse under controlled conditions in a glasshouse (at 24/16° C., day/night; 14 hours light; 65% humidity) and watered twice daily. After 13 days for pre and post-emergence, the test was evaluated (100=total damage to plant; 0=no damage to plant). Setaria faberi (SETFA), Lolium perenne (LOLPE), Alopecurus myosuroides (ALOMY), Echinochloa crus-galli (ECHCG), and Avena fatua (AVEFA). Post-Emergence Activity

[2] = tested on: Echinochloa crus-galli (ECHCG); assay: as above; settings: 312 h, rate 250 g/ha, evaluated after 13 days, scale 0-100, read-out: Post-emergence activity ECHCG (100=total damage to plant; 0=no damage to plant)
Experimental: as §1

Lolium perenne (LOLPE) [3] = assay: as above; settings: 312 h, rate 250 g/ha, evaluated after 13 days, scale 0-100, read-out: Post-emergence activity LOLPE (100=total damage to plant; 0=no damage to plant)
Experimental: as §1

[4] = tested on: Alopecurus myosuroides (ALOMY); assay: as above; settings: 312 h, rate 250 g/ha, evaluated after 13 days, scale 0-100, read-out: Post-emergence activity ALOMY (100=total damage to plant; 0=no damage to plant)
Experimental: as §1

Avena fatua (AVEFA) [5] = assay: Example B pre-emergence herbicidal activity, glasshouse pot test; settings: 312 h, rate 250 g/ha, evaluated after 13 days, scale 0-100, read-out: Pre-emergence activity AVEFA (100=total damage to plant; 0=no damage to plant)
Experimental: as §1, with “Pre-Emergence” for “Post-Emergence”

[6] = tested on: Echinochloa crus-galli (ECHCG); assay: as above; settings: 312 h, rate 250 g/ha, evaluated after 13 days, scale 0-100, read-out: Pre-emergence activity ECHCG (100=total damage to plant; 0=no damage to plant)
Experimental: as §1, with “Pre-Emergence” for “Post-Emergence”

Lolium perenne (LOLPE) [7] = assay: as above; settings: 312 h, rate 250 g/ha, evaluated after 13 days, scale 0-100, read-out: Pre-emergence activity LOLPE (100=total damage to plant; 0=no damage to plant)
Experimental: as §1, with “Pre-Emergence” for “Post-Emergence”

[8] = tested on: Alopecurus myosuroides (ALOMY); assay: as above; settings: 312 h, rate 250 g/ha, evaluated after 13 days, scale 0-100, read-out: Pre-emergence activity ALOMY (100=total damage to plant; 0=no damage to plant)
Experimental: as §1, with “Pre-Emergence” for “Post-Emergence”

Row | Compound | pest or weed control at 250 g/ha (Avena fatua (AVEFA) [1]) | pest or weed control at 250 g/ha [2] | pest or weed control at 250 g/ha (Lolium perenne (LOLPE) [3]) | pest or weed control at 250 g/ha [4] | pest or weed control at 250 g/ha (Avena fatua (AVEFA) [5]) | pest or weed control at 250 g/ha [6] | pest or weed control at 250 g/ha (Lolium perenne (LOLPE) [7]) | pest or weed control at 250 g/ha [8]
1 | CCc1ccc(-c2ccc(Cl)nc2)cc1C1=C(O)CC(C)(C)CC1=O [Compound T27] | 70% | 100% | 80% | 90% | 0% | 0% | 0% | 0%
2 | CCc1ccc(-c2ccc(Cl)c(F)c2Cl)cc1C1C(=O)C(C)(C)CC(C)(C)C1=O [Compound T63] | 40% | 80% | 80% | 20% | 50% | 90% | 90% | 20%
3 | CCc1ccc(-c2ccc(Cl)c(F)c2Cl)cc1C1=C(O)CC(C)(C)CC1=O [Compound T29] | 30% | 100% | 100% | 40% | 0% | 90% | 70% | 40%
4 | CCc1ccc(-c2ccc(Cl)cc2Cl)cc1C1=C(O)CCCC1=O [Compound T44] | 0% | 100% | 80% | 30% | 0% | 90% | 80% | 0%
5 | CCc1ccc(-c2ccc(Cl)c(Cl)c2)cc1C1=C(O)CC(C)(C)CC1=O [Compound T22] | 40% | 100% | 100% | 70% | 40% | 90% | 80% | 20%
6 | CCc1ccc(-c2ccc(Cl)c(F)c2F)cc1C1=C(O)C(C)(C)CC(C)(C)C1=O [Compound T62] | 80% | 80% | 80% | 60% | 50% | 90% | 90% | 60%
7 | CCc1ccc(-c2ccc(Cl)cc2C)cc1C1=C(O)CC(C)(C)CC1=O [Compound T21] | 0% | 80% | 70% | 0% | 30% | 40% | 50% | 0%
8 | CCc1ccc(-c2ccc(C(F)(F)F)cc2)cc1C1=C(O)CCCC1=O [Compound T59] | 100% | 100% | 100% | 100% | 100% | 100% | 100% | 100%
9 | CCc1ccc(-c2ccc(Cl)c(F)c2)cc1C1=C(O)CC(C)(C)CC1=O [Compound T33] | 80% | 100% | 100% | 100% | 20% | 90% | 90% | 0%
10 | CCc1ccc(-c2ccc(Cl)c(OC)c2)cc1C1=C(O)C(C)(C)CCC1=O [Compound T6] | 40% | 100% | 60% | 0% | 0% | 80% | 0% | 0%
11 | CCc1ccc(-c2ccc(Cl)nc2)cc1C1=C(O)C(C)(C)CCC1=O [Compound T11] | 60% | 90% | 60% | 60% | 0% | 20% | 0% | 0%
12 | CCc1ccc(-c2ccc(C(F)(F)F)cc2)cc1C1=C(O)CC(C)(C)CC1=O [Compound T34] | 100% | 100% | 100% | 100% | 0% | 50% | 30% | 20%
13 | CCc1ccc(-c2ccc(Cl)cc2C)cc1C1=C(O)CCCC1=O [Compound T48] | 10% | 100% | 50% | 20% | 20% | 90% | 80% | 0%
14 | CCc1ccc(-c2ccc(Cl)c(F)c2F)cc1C1=C(O)CC(C)(C)CC1=O [Compound T30] | 60% | 100% | 100% | 80% | 20% | 70% | 70% | 0%
15 | CCc1ccc(-c2ccc(Cl)cc2Cl)cc1C1=C(O)C(C)(C)CC(C)(C)C1=O [Compound T61] | 30% | 90% | 40% | 10% | 50% | 90% | 70% | 20%
16 | CCc1ccc(-c2ccc(Cl)c(OC)c2)cc1C1=C(O)CC(C)(C)CC1=O [Compound T23] | 60% | 100% | 100% | 90% | 20% | 90% | 70% | 40%
17 | CCc1ccc(-c2ccc(Cl)c(F)c2F)cc1C1=C(O)C(C)(C)CCC1=O [Compound T16] | 90% | 100% | 90% | 50% | 20% | 90% | 80% | 30%
18 | CCc1ccc(-c2ccc(Cl)cc2F)cc1C1=C(O)C(C)(C)CC(C)(C)C1=O [Compound T60] | 30% | 100% | 80% | 10% | 30% | 90% | 80% | 0%
19 | CCc1ccc(-c2ccc(Cl)s2)cc1C1=C(O)CCCC1=O [Compound T55] | 10% | 100% | 60% | 40% | 0% | 40% | 20% | 20%
